According to ChEMBL document CHEMBL1151225, “New neolignans that inhibit DNA polymerase beta lyase” (J Nat Prod, 2004):

target: DNA polymerase beta (Homo sapiens, UniProt P06746); assay: Inhibition of DNA polymerase beta lyase activity

Compound | IC50
C=CC[C@@]12C=C(O)C(=O)[C@](O)([C@H](c3ccc4c(c3)OCO4)[C@H]1C)[C@@H]2O | > 50 µM
C=CCc1c(OC)cc(OC)c2c1OCO2 | 18.6 µM
C=CC[C@@]12C=C(O)C(=O)[C@](OC)([C@H](c3ccc4c(c3)OCO4)[C@H]1C)[C@@H]2O | 21.6 µM
C=CC[C@]12C[C@@H](OC)C(=O)C(OC)=C1O[C@H](c1ccc3c(c1)OCO3)[C@H]2C | 12.3 µM
C=CCc1c(OC)cc2c(c1OC)OCO2 | 34.2 µM
COc1c(/C=C/CO)cc2c(c1OC)OCO2 | > 50 µM
COc1cc2c(c(OC)c1/C=C/CO)OCO2 | 43.5 µM
C=CC[C@@]12C=C(OC)C(=O)[C@](O)([C@H](c3ccc4c(c3)OCO4)[C@H]1C)[C@@H]2O | 15.3 µM
C=CC[C@@]12C=C(OC)C(=O)[C@](OC)([C@H](c3ccc4c(c3)OCO4)[C@H]1C)[C@@H]2O | > 50 µM
C=CC[C@@]12C[C@H](OC)[C@@H](O)[C@@](OC)([C@@H]1O)[C@@H](c1ccc3c(c1)OCO3)[C@@H]2C [CANELLIN A] | 26.5 µM
C=CC[C@@]12CC(=O)[C@@H](O)[C@@](OC)([C@@H]1O)[C@@H](c1ccc3c(c1)OCO3)[C@@H]2C [CANELLIN C] | 32.4 µM
C=CCc1cc2c(c(OC)c1OC)OCO2 [DILLAPIOLE] | > 50 µM
